Experimental data published in ChEMBL document CHEMBL4152237, “Identification of novel β-lactams and pyrrolidinone derivatives as selective Histamine-3 receptor (H3R) modulators as possible anti-obesity agents” (Eur J Med Chem, 2018).
Calls of active or inactive are those of the source. Unless noted, the calls are words filed in the database; no cut-off is given here.

What was measured:
[1] = target: Histamine H1 receptor (Homo sapiens) (UniProt P35367); experiment: Antagonist activity at H1R (unknown origin) expressed in HEK293 cells harboring luc2P/NFAT-RE plasmid at 10 uM after 6 to 8 hrs by luciferase reporter gene assay; type: functional, cell-based
Chain of Histamine H1 receptor (Homo sapiens) (P35367 whole entry): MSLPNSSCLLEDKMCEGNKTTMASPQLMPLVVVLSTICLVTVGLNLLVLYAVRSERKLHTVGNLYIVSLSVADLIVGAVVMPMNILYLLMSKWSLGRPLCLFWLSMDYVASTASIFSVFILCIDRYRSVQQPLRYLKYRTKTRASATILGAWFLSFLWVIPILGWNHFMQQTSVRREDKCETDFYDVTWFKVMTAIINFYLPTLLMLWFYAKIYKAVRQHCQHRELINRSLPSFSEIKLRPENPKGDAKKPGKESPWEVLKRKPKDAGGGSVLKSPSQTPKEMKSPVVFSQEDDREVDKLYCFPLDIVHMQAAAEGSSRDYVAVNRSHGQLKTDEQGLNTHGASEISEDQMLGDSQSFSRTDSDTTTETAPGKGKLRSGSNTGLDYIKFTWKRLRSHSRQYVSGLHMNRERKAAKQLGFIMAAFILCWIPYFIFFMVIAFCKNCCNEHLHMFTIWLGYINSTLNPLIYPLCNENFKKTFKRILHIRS

HEK-293T = experiment: Cytotoxicity against HEK293T cells assessed as reduction in cell viability at 1 to 10 uM after 24 hrs by XTT assay; type: cell-based; conditions: human
[2] = target: Histamine H4 receptor (Homo sapiens) (UniProt Q9H3N8); experiment: (§1) Agonist activity at H4R (unknown origin) expressed in HEK293 cells harboring glosensor-22F cAMP plasmid DNA assessed as inhibition of forskolin-stimulated cAMP accumulation at 10 uM preincubated with cells followed by forskolin addition measured after 10 mins by luminescence assay; type: functional, cell-based
Chain of Histamine H4 receptor (Homo sapiens) (Q9H3N8 whole entry): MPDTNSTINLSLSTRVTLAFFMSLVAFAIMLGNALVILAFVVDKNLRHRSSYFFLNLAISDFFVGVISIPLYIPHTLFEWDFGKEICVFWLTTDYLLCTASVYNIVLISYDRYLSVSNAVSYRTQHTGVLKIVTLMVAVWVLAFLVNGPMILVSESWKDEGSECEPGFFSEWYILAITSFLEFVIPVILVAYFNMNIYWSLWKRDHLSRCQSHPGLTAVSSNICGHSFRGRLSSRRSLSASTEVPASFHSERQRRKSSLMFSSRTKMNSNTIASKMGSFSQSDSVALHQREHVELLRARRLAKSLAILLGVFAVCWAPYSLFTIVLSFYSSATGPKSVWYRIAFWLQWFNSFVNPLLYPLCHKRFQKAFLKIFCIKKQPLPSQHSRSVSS

[3] = target: Luciferin 4-monooxygenase (Photinus pyralis) (UniProt P08659); experiment: Inhibition of firefly luciferase activity expressed in HEK293 cells assessed as reduction in forskolin-stimulated cAMP accumulation up to 10 uM preincubated with cells followed by forskolin addition measured after 10 mins by luminescence assay; type: cell-based
Chain of Luciferin 4-monooxygenase (Photinus pyralis) (P08659 whole entry): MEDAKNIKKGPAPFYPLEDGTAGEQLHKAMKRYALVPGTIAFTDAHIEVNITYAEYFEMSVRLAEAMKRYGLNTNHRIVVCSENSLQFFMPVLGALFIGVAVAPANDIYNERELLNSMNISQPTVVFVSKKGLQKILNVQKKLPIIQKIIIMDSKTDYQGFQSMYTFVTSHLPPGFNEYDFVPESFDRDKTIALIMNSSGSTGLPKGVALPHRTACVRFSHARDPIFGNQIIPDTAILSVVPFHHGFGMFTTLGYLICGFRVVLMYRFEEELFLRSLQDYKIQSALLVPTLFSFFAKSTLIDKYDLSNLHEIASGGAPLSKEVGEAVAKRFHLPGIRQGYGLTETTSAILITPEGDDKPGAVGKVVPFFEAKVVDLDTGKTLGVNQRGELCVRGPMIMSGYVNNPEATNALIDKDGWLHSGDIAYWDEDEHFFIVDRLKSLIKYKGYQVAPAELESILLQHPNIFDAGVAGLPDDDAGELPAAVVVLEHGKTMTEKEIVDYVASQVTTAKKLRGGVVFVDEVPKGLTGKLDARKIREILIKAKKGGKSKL

[4] = target: T1, 5-hydroxytryptamine receptor 2C (Homo sapiens) (UniProt P28335); experiment: Agonist activity at human 5-HT2C expressed in HEK293 cells harboring luc2P/NFAT-RE plasmid at 10 uM after 6 to 8 hrs by luciferase reporter gene assay; type: functional, cell-based
T1 sequence (whole entry): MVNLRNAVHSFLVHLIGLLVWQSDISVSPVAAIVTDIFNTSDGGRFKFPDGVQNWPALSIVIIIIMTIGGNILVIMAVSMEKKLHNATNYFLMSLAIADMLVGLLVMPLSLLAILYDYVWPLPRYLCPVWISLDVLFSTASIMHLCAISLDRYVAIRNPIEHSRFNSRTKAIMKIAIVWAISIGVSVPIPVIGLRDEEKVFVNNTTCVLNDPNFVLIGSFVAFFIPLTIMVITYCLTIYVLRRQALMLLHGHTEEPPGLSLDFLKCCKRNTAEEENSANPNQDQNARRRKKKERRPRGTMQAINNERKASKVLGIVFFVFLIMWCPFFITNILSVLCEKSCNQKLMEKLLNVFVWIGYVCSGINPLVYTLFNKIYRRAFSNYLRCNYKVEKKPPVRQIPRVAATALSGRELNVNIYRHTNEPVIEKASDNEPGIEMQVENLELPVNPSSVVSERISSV

Histamine H3 receptor [5] = target: T2, Histamine H3 receptor (Homo sapiens, UniProt Q9Y5N1); experiment: as §1, with “at human H3R” for “at H4R (unknown origin)”, “at 1” for “at 10”, “mins in presence of H3R antagonist GSK334429” for “mins”; type: functional, cell-based
T2 sequence (Q9Y5N1 whole entry): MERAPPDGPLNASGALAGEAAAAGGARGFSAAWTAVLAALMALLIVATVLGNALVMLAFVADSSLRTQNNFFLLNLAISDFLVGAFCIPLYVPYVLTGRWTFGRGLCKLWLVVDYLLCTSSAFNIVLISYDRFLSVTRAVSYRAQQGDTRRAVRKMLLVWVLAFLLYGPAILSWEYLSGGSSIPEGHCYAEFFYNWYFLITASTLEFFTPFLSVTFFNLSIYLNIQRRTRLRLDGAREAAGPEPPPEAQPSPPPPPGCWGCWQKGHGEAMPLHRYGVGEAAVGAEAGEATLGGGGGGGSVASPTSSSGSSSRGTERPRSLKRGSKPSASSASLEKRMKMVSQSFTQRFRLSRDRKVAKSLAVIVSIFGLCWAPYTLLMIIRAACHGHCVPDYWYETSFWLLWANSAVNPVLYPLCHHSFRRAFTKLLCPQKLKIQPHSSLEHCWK

[6] = target: T1, 5-hydroxytryptamine receptor 2C (Homo sapiens); experiment: Antagonist activity at human 5-HT2C expressed in HEK293 cells harboring luc2P/NFAT-RE plasmid at 10 uM after 6 to 8 hrs by luciferase reporter gene assay; type: functional, cell-based
[7] = target: Histamine H2 receptor (Homo sapiens) (UniProt P25021); experiment: Antagonist activity at H2R (unknown origin) expressed in HEK293 cells harboring glosensor-22F cAMP plasmid DNA assessed as effect on forskolin-stimulated cAMP accumulation at 10 uM preincubated with cells followed by forskolin addition measured after 10 mins by luminescence assay; type: functional, cell-based
Chain of Histamine H2 receptor (Homo sapiens) (P25021 whole entry): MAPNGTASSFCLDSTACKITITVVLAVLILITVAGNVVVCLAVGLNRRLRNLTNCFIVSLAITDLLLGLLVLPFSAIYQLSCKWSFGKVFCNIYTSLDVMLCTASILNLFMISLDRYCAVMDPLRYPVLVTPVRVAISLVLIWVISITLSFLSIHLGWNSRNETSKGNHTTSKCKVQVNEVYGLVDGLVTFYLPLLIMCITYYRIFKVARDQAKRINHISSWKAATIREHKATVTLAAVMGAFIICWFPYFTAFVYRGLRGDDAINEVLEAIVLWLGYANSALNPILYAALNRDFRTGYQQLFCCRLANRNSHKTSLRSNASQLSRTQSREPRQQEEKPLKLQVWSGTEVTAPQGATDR

[8] = target: Histamine H1 receptor (Homo sapiens) (UniProt P35367); experiment: Agonist activity at H1R (unknown origin) expressed in HEK293 cells harboring luc2P/NFAT-RE plasmid at 10 uM after 6 to 8 hrs by luciferase reporter gene assay; type: functional, cell-based
[9] = target: Histamine H2 receptor (Homo sapiens) (UniProt P25021); experiment: Agonist activity at H2R (unknown origin) expressed in HEK293 cells harboring glosensor-22F cAMP plasmid DNA assessed as inhibition of forskolin-stimulated cAMP accumulation at 10 uM preincubated with cells followed by forskolin addition measured after 10 mins by luminescence assay; type: functional, cell-based
[10] = target: Histamine H4 receptor (Homo sapiens) (UniProt Q9H3N8); experiment: Antagonist activity at H4R (unknown origin) expressed in HEK293 cells harboring glosensor-22F cAMP plasmid DNA assessed as effect on forskolin-stimulated cAMP accumulation at 10 uM preincubated with cells followed by forskolin addition measured after 10 mins by luminescence assay; type: functional, cell-based
Histamine H3 receptor [11] = target: T2, Histamine H3 receptor; experiment: Agonist activity at human H3R expressed in HEK293 cells harboring glosensor-22F cAMP plasmid DNA assessed as inhibition of forskolin-stimulated cAMP accumulation preincubated with cells followed by forskolin addition measured after 10 mins by luminescence assay; type: functional, cell-based
[12] = Octanol/water partition co-efficient, log P of the compound after 24 hrs by HPLC based shake-flask method; type: physicochemical

Structure (SMILES)	inhibition [1]	Activity (HEK-293T)	inhibition [2]	inhibition [3]	Activity [4]	inhibition (Histamine H3 receptor [5])	inhibition [6]	inhibition [7]	Activity [8]	inhibition [9]	inhibition [10]	EC50 (Histamine H3 receptor [11]; read-out: EC50) [nM]	logP at 24 h [12]	EC50 (Histamine H3 receptor [11]; read-out: pEC50 (converted)) [nM]
COc1cc(N2C(=O)C(=Cc3ccccc3)C2(C(=O)NC(C)(C)C)c2ccccc2)cc(OC)c1OC (stereo not given)	inactive	Non-Toxic	inactive	inactive	inactive	inactive	inactive	inactive	inactive	inactive	inactive	0.1	–	–
COc1cc(N2C(=O)C(=Cc3ccccc3)C2(C(=O)NC(C)(C)C)c2cc(F)cc(F)c2)cc(OC)c1OC (stereo not given)	inactive	Non-Toxic	inactive	inactive	inactive	inactive	inactive	inactive	inactive	inactive	inactive	0.3	2.34	–
COc1cc(N2C(=O)C(=Cc3ccccc3)C2(C(=O)NC(C)(C)C)c2ccc(Cl)c(F)c2)cc(OC)c1OC (stereo not given)	inactive	Non-Toxic	inactive	inactive	inactive	inactive	inactive	inactive	inactive	inactive	inactive	1.1	–	–
COc1ccc(C2=C(c3ccccc3)C3(C=CC(=O)C=C3)N(C(C(=O)NC3CCCCC3)c3cc4c(cc3Br)OCO4)C2=O)cc1 (stereo not given)	inactive	Non-Toxic	inactive	inactive	inactive	inactive	inactive	inactive	inactive	inactive	inactive	14.4	–	–
COc1ccc(C(C(=O)NC2CCCCC2)N2C(=O)C(c3ccc(C(F)(F)F)cc3)=C(c3ccccc3)C23C=CC(=O)C=C3)c(OC)c1OC (stereo not given)	inactive	Non-Toxic	inactive	inactive	inactive	inactive	inactive	inactive	inactive	inactive	inactive	13	2.74	–
COC1=CC2(C=C(OC)C1=O)C(c1ccccc1)=C(c1ccc(C(F)(F)F)cc1)C(=O)N2C(C(=O)NC1CCCCC1)c1ccc(OC)c(OC)c1OC (stereo not given)	inactive	Non-Toxic	inactive	inactive	inactive	inactive	inactive	inactive	inactive	inactive	inactive	6.7	–	–
COc1ccc(NC2(c3ccc(Br)cc3)C(=O)N(C(C)(C)C)C(=O)/C2=C/c2ccccc2)cc1OC (stereo not given)	inactive	Non-Toxic	inactive	inactive	inactive	inactive	inactive	inactive	inactive	inactive	inactive	1.3	–	–
O=C1C=C[C@]23C(c4ccccc4)=CC(=O)N2[C@H](c2cc(F)cc(F)c2)C(=O)N[C@@H]3C1	inactive	Non-Toxic	inactive	inactive	inactive	inactive	inactive	inactive	inactive	inactive	inactive	10	–	–
COc1cc(NC2(c3ccccc3Cl)C(=O)N(C(C)(C)C)C(=O)/C2=C/c2ccccc2)cc(OC)c1OC (stereo not given)	inactive	Non-Toxic	inactive	inactive	inactive	inactive	inactive	inactive	inactive	inactive	inactive	187	–	–
COc1ccc(NC2(c3cc(F)cc(F)c3)C(=O)N(C3CCCCC3)C(=O)/C2=C/c2ccccc2)cc1 (stereo not given)	inactive	Non-Toxic	inactive	inactive	inactive	inactive	inactive	inactive	inactive	inactive	inactive	3.8	–	–
COc1ccc(N2C(=O)/C(=C\c3ccccc3)C2(C(=O)NC(C)(C)C)c2ccc(Br)cc2)cc1OC (stereo not given)	inactive	Non-Toxic	inactive	inactive	inactive	inactive	inactive	inactive	inactive	inactive	inactive	24	–	25.7
COc1ccc(N2C(=O)C(=Cc3ccccc3)C2(C(=O)NC2CCCCC2)c2cc(F)c(F)c(F)c2)cc1 (stereo not given)	inactive	Non-Toxic	inactive	inactive	inactive	inactive	inactive	inactive	inactive	inactive	inactive	0.1	–	–
COc1ccc(NC2(c3ccc(F)cc3)C(=O)N(C(C)(C)C)C(=O)/C2=C/c2ccccc2)cc1 (stereo not given)	inactive	Non-Toxic	inactive	inactive	inactive	inactive	inactive	inactive	inactive	inactive	inactive	1.3	–	1.23
COc1cc(NC2(c3ccc(Br)cc3)C(=O)N(C(C)(C)C)C(=O)/C2=C/c2ccccc2)cc(OC)c1OC (stereo not given)	inactive	Non-Toxic	inactive	inactive	inactive	inactive	inactive	inactive	inactive	inactive	inactive	5.7	–	–
COc1ccc(NC2(c3ccccc3)C(=O)N(C(C)(C)C)C(=O)/C2=C/c2ccccc2)cc1 (stereo not given)	inactive	Non-Toxic	inactive	inactive	inactive	inactive	inactive	inactive	inactive	inactive	inactive	3	–	22.9
